Each block holds one compound with its values, some of them ahead of it. Calls of active or inactive are those of the source.
How the values were obtained:
Cytochrome P450 2C9 = Cytochrome P450 2C9 (Homo sapiens, UniProt P11712)
Coagulation factor XII = target: T1, Coagulation factor XII (Homo sapiens, UniProt P00748); assay type: functional;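 further: activated factor XIIa alpha cleaving a fluorogenic AMC peptide substrate; inhibitor potency from loss of enzyme activity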
T1 sequence (P00748 whole entry): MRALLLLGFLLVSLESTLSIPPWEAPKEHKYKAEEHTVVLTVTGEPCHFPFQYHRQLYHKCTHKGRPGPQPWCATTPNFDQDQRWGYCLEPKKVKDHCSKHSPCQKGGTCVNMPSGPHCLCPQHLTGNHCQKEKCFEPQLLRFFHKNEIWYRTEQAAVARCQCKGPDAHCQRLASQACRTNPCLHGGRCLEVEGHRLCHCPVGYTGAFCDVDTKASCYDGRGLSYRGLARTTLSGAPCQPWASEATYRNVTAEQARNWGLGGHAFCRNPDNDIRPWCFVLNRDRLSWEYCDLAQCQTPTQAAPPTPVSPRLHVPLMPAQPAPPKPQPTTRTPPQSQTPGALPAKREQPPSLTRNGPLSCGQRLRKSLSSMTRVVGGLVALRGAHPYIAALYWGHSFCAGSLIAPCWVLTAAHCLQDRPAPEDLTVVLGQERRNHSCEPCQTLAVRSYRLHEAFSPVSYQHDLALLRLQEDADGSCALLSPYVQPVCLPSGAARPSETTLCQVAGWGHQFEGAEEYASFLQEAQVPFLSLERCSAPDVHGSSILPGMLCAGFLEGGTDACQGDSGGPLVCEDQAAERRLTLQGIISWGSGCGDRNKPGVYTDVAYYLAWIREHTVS

[1] = target: T2, Short transient receptor potential channel 4 (Mus musculus, UniProt Q9QUQ5); test: mouse TRPC4 channel activators, dose response, cell-based, HEK293 TRPC4/mu-opioid, Fluo-4 calcium (AID 434937); assay type: functional
T2 sequence (Q9QUQ5 whole entry): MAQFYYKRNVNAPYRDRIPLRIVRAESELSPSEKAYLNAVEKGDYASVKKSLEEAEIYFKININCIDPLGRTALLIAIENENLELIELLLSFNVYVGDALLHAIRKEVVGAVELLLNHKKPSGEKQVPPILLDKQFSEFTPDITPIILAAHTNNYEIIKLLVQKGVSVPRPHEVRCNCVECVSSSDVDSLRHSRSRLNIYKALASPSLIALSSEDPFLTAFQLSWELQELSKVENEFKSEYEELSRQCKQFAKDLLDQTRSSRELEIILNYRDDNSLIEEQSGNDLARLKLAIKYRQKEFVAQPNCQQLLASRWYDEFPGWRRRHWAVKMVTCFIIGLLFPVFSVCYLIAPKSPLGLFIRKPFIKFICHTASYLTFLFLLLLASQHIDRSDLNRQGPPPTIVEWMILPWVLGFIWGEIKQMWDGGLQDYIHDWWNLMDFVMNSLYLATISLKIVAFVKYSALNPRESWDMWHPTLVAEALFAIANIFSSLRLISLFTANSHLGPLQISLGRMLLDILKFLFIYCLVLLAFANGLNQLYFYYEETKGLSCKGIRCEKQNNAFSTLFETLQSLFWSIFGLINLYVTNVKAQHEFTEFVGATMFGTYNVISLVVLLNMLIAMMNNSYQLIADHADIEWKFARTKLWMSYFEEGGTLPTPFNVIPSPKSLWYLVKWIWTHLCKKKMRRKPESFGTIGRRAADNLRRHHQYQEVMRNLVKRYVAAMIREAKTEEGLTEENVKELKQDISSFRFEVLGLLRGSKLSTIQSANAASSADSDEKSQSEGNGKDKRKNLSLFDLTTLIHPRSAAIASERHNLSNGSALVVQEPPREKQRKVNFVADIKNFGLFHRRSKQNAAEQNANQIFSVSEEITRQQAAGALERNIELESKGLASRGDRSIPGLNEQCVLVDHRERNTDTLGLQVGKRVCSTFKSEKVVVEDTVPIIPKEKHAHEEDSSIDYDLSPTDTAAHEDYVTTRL

Protein skinhead-1 = target: T3, Protein skinhead-1 (Caenorhabditis elegans, UniProt P34707); assay type: functional
T3 sequence (P34707 whole entry): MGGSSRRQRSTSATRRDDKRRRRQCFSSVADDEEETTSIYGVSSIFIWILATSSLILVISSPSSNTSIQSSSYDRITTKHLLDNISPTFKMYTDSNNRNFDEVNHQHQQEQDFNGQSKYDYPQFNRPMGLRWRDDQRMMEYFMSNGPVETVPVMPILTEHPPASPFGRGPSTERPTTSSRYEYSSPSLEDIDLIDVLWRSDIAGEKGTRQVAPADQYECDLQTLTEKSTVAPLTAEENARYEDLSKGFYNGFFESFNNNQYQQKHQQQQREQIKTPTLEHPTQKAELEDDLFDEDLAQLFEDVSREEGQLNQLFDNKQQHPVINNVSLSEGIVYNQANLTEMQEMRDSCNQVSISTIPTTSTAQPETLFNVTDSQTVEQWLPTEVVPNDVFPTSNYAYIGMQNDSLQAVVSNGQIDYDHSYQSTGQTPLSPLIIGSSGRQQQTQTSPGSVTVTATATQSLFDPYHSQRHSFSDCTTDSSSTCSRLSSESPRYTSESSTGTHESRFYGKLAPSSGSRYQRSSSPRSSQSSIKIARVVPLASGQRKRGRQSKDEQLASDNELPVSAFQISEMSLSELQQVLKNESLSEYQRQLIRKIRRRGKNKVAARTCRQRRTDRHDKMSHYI

Cytochrome P450 1A2 = target: T4, Cytochrome P450 1A2 (Homo sapiens, UniProt P05177);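 further: PubChem cytochrome P450 panel assay, CYP1A2 panel member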
T4 sequence (P05177 whole entry): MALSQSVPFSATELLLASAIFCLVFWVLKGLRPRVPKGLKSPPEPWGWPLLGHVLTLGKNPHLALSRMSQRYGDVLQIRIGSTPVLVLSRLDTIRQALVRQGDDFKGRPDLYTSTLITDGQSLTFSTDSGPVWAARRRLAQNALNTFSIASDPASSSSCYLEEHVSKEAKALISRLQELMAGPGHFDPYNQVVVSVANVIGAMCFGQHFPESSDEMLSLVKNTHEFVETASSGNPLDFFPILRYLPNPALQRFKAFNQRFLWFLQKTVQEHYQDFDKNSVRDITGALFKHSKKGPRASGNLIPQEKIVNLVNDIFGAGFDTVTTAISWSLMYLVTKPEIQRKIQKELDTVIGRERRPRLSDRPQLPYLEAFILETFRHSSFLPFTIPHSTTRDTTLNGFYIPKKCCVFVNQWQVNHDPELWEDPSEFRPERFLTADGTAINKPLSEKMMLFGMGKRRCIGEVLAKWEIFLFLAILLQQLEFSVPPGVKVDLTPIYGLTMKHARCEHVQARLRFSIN

Cytochrome P450 2C9, sequence (P11712 whole entry): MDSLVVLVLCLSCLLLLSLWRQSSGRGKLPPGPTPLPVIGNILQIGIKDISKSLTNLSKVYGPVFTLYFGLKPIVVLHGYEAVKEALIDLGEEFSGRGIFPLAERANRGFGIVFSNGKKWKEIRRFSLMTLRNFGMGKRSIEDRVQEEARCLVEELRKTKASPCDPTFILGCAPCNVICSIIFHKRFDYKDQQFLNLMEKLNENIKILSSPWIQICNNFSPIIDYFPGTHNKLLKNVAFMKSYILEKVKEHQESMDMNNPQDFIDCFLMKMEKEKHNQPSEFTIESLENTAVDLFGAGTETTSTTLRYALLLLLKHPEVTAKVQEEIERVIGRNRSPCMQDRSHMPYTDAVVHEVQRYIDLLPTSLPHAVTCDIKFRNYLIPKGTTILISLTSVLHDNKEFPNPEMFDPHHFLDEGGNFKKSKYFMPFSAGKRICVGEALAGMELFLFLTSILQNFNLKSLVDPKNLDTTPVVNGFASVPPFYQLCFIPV

- AC50 (Cytochrome P450 2C9): inconclusive
Compound: O=C(Nc1ccccc1)c1cc(-c2ccccc2Cl)no1

- IC50 (Coagulation factor XII): > 50 µM (inactive)
Compound: CC(C)(C)SCCNS(=O)(=O)c1ccccc1

- IC50 (Coagulation factor XII): > 50 µM (inactive)
Compound: O=C(CSc1nc2ccccc2s1)NC1CCCC1

Compound: CC1(C)CC(CCNCc2ccc3c(c2)OCO3)(Cc2ccccc2)CCO1 (configuration not stated)
- EC50 [1]: 6.68 µM (active)

Compound: O=C(c1cccnc1)C1CCCN(Cc2nc(-c3cnccn3)no2)C1 (configuration not stated)
- IC50 (Coagulation factor XII): > 50 µM (inactive)

- IC50 (Protein skinhead-1): > 100 µM (inactive)
Compound: O=C(CCS(=O)(=O)c1cccc2nsnc12)N1CCN(c2ccccc2F)CC1

- IC50 (Protein skinhead-1): > 100 µM (inactive)
Compound: Cc1ccc(C(=O)NC(=S)Nc2ccccc2C(F)(F)F)c(C)c1

- EC50 [1]: 2.99 µM (active)
Compound: CN1CCN(c2ccc(NC(=O)COc3cccc4ccccc34)cc2)CC1

- EC50 [1]: 6.68 µM (active)
Compound: NCCNC(=O)c1c(NC(=O)c2ccccc2)sc2c1CCCC2

- IC50 (Protein skinhead-1): > 100 µM (inactive)
Compound: CCCC(=O)N1CCN(c2ccc(NC(=O)c3cc4ccccc4o3)cc2)CC1

- AC50 (Cytochrome P450 1A2): 0.251 µM (inconclusive)
- AC50 (Cytochrome P450 2C9): inconclusive
Compound: CC(C)CCN1CC(C(=O)N2CCN(c3ccc(F)cc3)CC2)CC1=O (configuration not stated)

— ChEMBL document CHEMBL1201862, “PubChem BioAssay data set” (2004)
